Laboratory results published in the SangsterLogP compilation.

Test: method code SF-HPLC, from DOI: 10.2478/s11532-013-0336-y

| logP | Compound |
| --- | --- |
| 3.95 | CCCCCCCC(O)c1cc(OC)c(OC)c(OC)c1 (stereo not given) |
| 2.73 | C/C=C/c1c(OC)ccc(OC)c1OC |
| 3.81 | C=CCOc1c(OC)cc(C=CCC)cc1OC |
| 2.49 | CCCCC(O)c1cc(OC)c(OC)c(OC)c1 (stereo not given) |
| 3.59 | CCCCCCC(O)c1cc(OC)c(OC)c(OC)c1 (stereo not given) |
| 3.09 | C/C=C/c1ccc(OC)c(OC)c1OC |
| 4.5 | CCCCCC=Cc1cc(OC)c(OC)c(OC)c1 |
| 3.06 | CC/C=C\c1cc(OC)c(OC)c(OC)c1 |
| 2.93 | C/C=C/c1cc(OC)cc(OC)c1OC |
| 2.61 | C/C=C/c1c(OC)cc(OC)cc1OC |
| 2.9 | CCCCCC(O)c1cc(OC)c(OC)c(OC)c1 (stereo not given) |
| 3.97 | CCC/C=C\c1c(OC)cc(OC)cc1OC |
| 3.67 | CCCC=Cc1cc(OC)c(OC)c(OC)c1 |
| 1.94 | CCCC(O)c1cc(OC)c(OC)c(OC)c1 (stereo not given) |
| 1.45 | CCC(O)c1cc(OC)c(OC)c(OC)c1 (stereo not given) |
| 4.57 | CCCC/C=C\c1c(OC)cc(OC)cc1OC |
| 2.94 | CC=Cc1cc(OC)c(OC(=O)c2cccnc2)c(OC)c1 |
| 3.22 | C=CCOc1c(OC)cc(C=CC)cc1OC |
| 4.28 | C=CCOc1c(OC)cc(C=CCCC)cc1OC |
| 3.56 | CC/C=C\c1c(OC)cc(OC)cc1OC |
| 3.96 | CCCC=Cc1cc(OC)c(OC(=O)c2cccnc2)c(OC)c1 |
| 3.5 | CCC=Cc1cc(OC)c(OC(=O)c2cccnc2)c(OC)c1 |
| 4.1 | CCCCC=Cc1cc(OC)c(OC)c(OC)c1 |

| Compound | logP |
| --- | --- |
| C/C=C/c1cc(OC)c(OC)c(OC)c1 | 2.27 |
| C/C=C/c1cc(OC)c(OC)cc1OC | 2.44 |
